≈ marks a conversion by molar mass, not a printed value. Read-outs that look alike come from different tables or passages of the source. Where a SMILES comes first, the peptide text is derived from it. [ ]: non-standard residue; d: D form. Bip = N[C@@H](Cc1ccc(-c2ccccc2)cc1)C(=O)O; Lys(N3) = [N-]=[N+]=NCCCC[C@H](N)C(=O)O
Key:
Assay type in all cases: cell-based
[1] = tested on: Pseudomonas aeruginosa ATCC 27853; conditions: for Antimicrobial Activity (MIC) P. aeruginosa: ATCC 27853; for MIC P. aeruginosa ATCC 27853: Table S3
Description: (§1) The minimal inhibitory concentration (MIC) of peptides 1a, 1b, 2a, and 2b were determined by broth microdilution according to the Clinical Laboratory Standard Institute (CLSI) method […]-A9. The MICs of the peptides 1c, 1d, 2c, and 2d were determined by broth dilution according to the European Committee for Antimicrobial Susceptibility Testing (EUCAST). Final concentrations of 0.5-256 μg/mL were tested against a panel of reference bacteria-S. aureus (ATCC 9144), S. epidermidis (1457), E. coli (ATCC 25922), and P. aeruginosa (ATCC 27853). Each strain was tested in biological triplicate. The MIC values were defined as the lowest concentration of the peptides resulting in no visual growth.

[2] = tested on: Staphylococcus epidermidis 1457; conditions: for MIC S. epidermidis 1457: Table S3
Description: as §1

[3] = tested on: Escherichia coli ATCC 25922; conditions: for Antimicrobial Activity (MIC) E. coli: ATCC 25922; for MIC E. coli ATCC 25922: Table S3
Description: as §1

[4] = tested on: Staphylococcus aureus ATCC 9144; conditions: for Antimicrobial Activity (MIC) S. aureus: ATCC 9144; for MIC S. aureus ATCC 9144: Table S3
Description: as §1

[5] = technical replicate 1, biological replicate BR1
[6] = technical replicate 1, biological replicate BR2
[7] = technical replicate 1, biological replicate BR3
[8] = technical replicate 2, biological replicate BR1
[9] = technical replicate 2, biological replicate BR2
[10] = technical replicate 2, biological replicate BR3
[11] = technical replicate 3, biological replicate BR1
[12] = technical replicate 3, biological replicate BR2
[13] = technical replicate 3, biological replicate BR3
[14] = broth microdilution CLSI M07-A9 (1a,1b,2a,2b) or broth dilution EUCAST (1c,1d,2c,2d), 0.5-256 µg/mL tested, biological triplicate, no visual growth
[15] = strain 1457, broth microdilution CLSI M07-A9 (1a,1b,2a,2b) or broth dilution EUCAST (1c,1d,2c,2d), 0.5-256 µg/mL tested, biological triplicate, no visual growth
[16] = broth microdilution CLSI M07-A9 (1a,1b,2a,2b) or broth dilution EUCAST (1c,1d,2c,2d), 0.5-256 µg/mL tested, biological triplicate, lowest concentration with no visual growth

Compound | MIC P. aeruginosa ATCC 27853 [1, 5] [µg/mL] | MIC P. aeruginosa ATCC 27853 [1, 6] [µg/mL] | MIC P. aeruginosa ATCC 27853 [1, 7] [µg/mL] | MIC P. aeruginosa ATCC 27853 [1, 8] [µg/mL] | MIC P. aeruginosa ATCC 27853 [1, 9] [µg/mL] | MIC P. aeruginosa ATCC 27853 [1, 10] [µg/mL] | MIC P. aeruginosa ATCC 27853 [1, 11] [µg/mL] | MIC P. aeruginosa ATCC 27853 [1, 12] [µg/mL] | MIC P. aeruginosa ATCC 27853 [1, 13] [µg/mL] | MIC S. epidermidis 1457 [2, 5] [µg/mL] | MIC S. epidermidis 1457 [2, 6] [µg/mL] | MIC S. epidermidis 1457 [2, 7] [µg/mL] | MIC S. epidermidis 1457 [2, 8] [µg/mL] | MIC S. epidermidis 1457 [2, 9] [µg/mL] | MIC S. epidermidis 1457 [2, 10] [µg/mL] | MIC S. epidermidis 1457 [2, 11] [µg/mL] | MIC S. epidermidis 1457 [2, 12] [µg/mL] | MIC S. epidermidis 1457 [2, 13] [µg/mL] | MIC E. coli ATCC 25922 [3, 5] [µg/mL] | MIC E. coli ATCC 25922 [3, 6] [µg/mL] | also measured
[N-]=[N+]=NCCCC[C@H](NC(=O)[C@H](Cc1ccccc1)NC(=O)[C@H](CCCNC(=N)N)NC(=O)[C@H](Cc1ccc(-c2ccccc2)cc1)NC(=O)[C@H](Cc1ccc(-c2ccccc2)cc1)NC(=O)[C@@H](N)CCCNC(=N)N)C(N)=O [2c] (H-R[Bip][Bip]RF[Lys(N3)]-NH2) | 8 (≈ 7.43 µM) | 8 (≈ 7.43 µM) | 16 (≈ 14.9 µM) | 16 (≈ 14.9 µM) | 16 (≈ 14.9 µM) | 16 (≈ 14.9 µM) | 16 (≈ 14.9 µM) | 8 (≈ 7.43 µM) | 16 (≈ 14.9 µM) | 8 (≈ 7.43 µM) | 4 (≈ 3.71 µM) | 8 (≈ 7.43 µM) | 4 (≈ 3.71 µM) | 4 (≈ 3.71 µM) | 8 (≈ 7.43 µM) | 4 (≈ 3.71 µM) | 4 (≈ 3.71 µM) | 8 (≈ 7.43 µM) | 8 (≈ 7.43 µM) | 8 (≈ 7.43 µM) | Antimicrobial Activity (MIC) P. aeruginosa [1]: 16 µg/mL; Antimicrobial Activity (MIC) S. epidermidis [2]; 1457: 4 µg/mL; Antimicrobial Activity (MIC) E. coli [3]: 8 µg/mL; MIC E. coli ATCC 25922 [3, 7]: 16 µg/mL (≈ 14.9 µM); MIC E. coli ATCC 25922 [3, 8]: 8 µg/mL (≈ 7.43 µM); MIC E. coli ATCC 25922 [3, 9]: 8 µg/mL (≈ 7.43 µM); MIC E. coli ATCC 25922 [3, 10]: 16 µg/mL (≈ 14.9 µM); MIC E. coli ATCC 25922 [3, 11]: 8 µg/mL (≈ 7.43 µM); MIC E. coli ATCC 25922 [3, 12]: 16 µg/mL (≈ 14.9 µM); MIC E. coli ATCC 25922 [3, 13]: 8 µg/mL (≈ 7.43 µM); Antimicrobial Activity (MIC) S. aureus [4]: 8 µg/mL; MIC S. aureus ATCC 9144 [4, 5]: 8 µg/mL (≈ 7.43 µM); MIC S. aureus ATCC 9144 [4, 6]: 4 µg/mL (≈ 3.71 µM); MIC S. aureus ATCC 9144 [4, 7]: 8 µg/mL (≈ 7.43 µM); MIC S. aureus ATCC 9144 [4, 8]: 8 µg/mL (≈ 7.43 µM); MIC S. aureus ATCC 9144 [4, 9]: 8 µg/mL (≈ 7.43 µM); MIC S. aureus ATCC 9144 [4, 10]: 8 µg/mL (≈ 7.43 µM); MIC S. aureus ATCC 9144 [4, 11]: 8 µg/mL (≈ 7.43 µM); MIC S. aureus ATCC 9144 [4, 12]: 4 µg/mL (≈ 3.71 µM); MIC S. aureus ATCC 9144 [4, 13]: 8 µg/mL (≈ 7.43 µM)
[N-]=[N+]=NCCCC[C@@H]1NC(=O)[C@H](Cc2ccccc2)NC(=O)[C@H](CCCNC(=N)N)NC(=O)[C@H](Cc2ccc(-c3ccccc3)cc2)NC(=O)[C@H](Cc2ccc(-c3ccccc3)cc2)NC(=O)[C@H](CCCNC(=N)N)NC1=O [2d] (cyclo(R[Bip][Bip]RF[Lys(N3)])) | 256 (≈ 241 µM) | 256 (≈ 241 µM) | 256 (≈ 241 µM) | 256 (≈ 241 µM) | 256 (≈ 241 µM) | 256 (≈ 241 µM) | 256 (≈ 241 µM) | 256 (≈ 241 µM) | 256 (≈ 241 µM) | 4 (≈ 3.77 µM) | 2 (≈ 1.89 µM) | 2 (≈ 1.89 µM) | 2 (≈ 1.89 µM) | 2 (≈ 1.89 µM) | 2 (≈ 1.89 µM) | 2 (≈ 1.89 µM) | 2 (≈ 1.89 µM) | 2 (≈ 1.89 µM) | 64 (≈ 60.4 µM) | 64 (≈ 60.4 µM) | Antimicrobial Activity (MIC) P. aeruginosa [1]: 256 µg/mL; Antimicrobial Activity (MIC) S. epidermidis [2]; 1457: 2 µg/mL; Antimicrobial Activity (MIC) E. coli [3]: 64 µg/mL; MIC E. coli ATCC 25922 [3, 7]: 64 µg/mL (≈ 60.4 µM); MIC E. coli ATCC 25922 [3, 8]: 64 µg/mL (≈ 60.4 µM); MIC E. coli ATCC 25922 [3, 9]: 64 µg/mL (≈ 60.4 µM); MIC E. coli ATCC 25922 [3, 10]: 32 µg/mL (≈ 30.2 µM); MIC E. coli ATCC 25922 [3, 11]: 64 µg/mL (≈ 60.4 µM); MIC E. coli ATCC 25922 [3, 12]: 64 µg/mL (≈ 60.4 µM); MIC E. coli ATCC 25922 [3, 13]: 32 µg/mL (≈ 30.2 µM); Antimicrobial Activity (MIC) S. aureus [4]: 4 µg/mL; MIC S. aureus ATCC 9144 [4, 5]: 8 µg/mL (≈ 7.55 µM); MIC S. aureus ATCC 9144 [4, 6]: 4 µg/mL (≈ 3.77 µM); MIC S. aureus ATCC 9144 [4, 7]: 4 µg/mL (≈ 3.77 µM); MIC S. aureus ATCC 9144 [4, 8]: 4 µg/mL (≈ 3.77 µM); MIC S. aureus ATCC 9144 [4, 9]: 4 µg/mL (≈ 3.77 µM); MIC S. aureus ATCC 9144 [4, 10]: 8 µg/mL (≈ 7.55 µM); MIC S. aureus ATCC 9144 [4, 11]: 4 µg/mL (≈ 3.77 µM); MIC S. aureus ATCC 9144 [4, 12]: 4 µg/mL (≈ 3.77 µM); MIC S. aureus ATCC 9144 [4, 13]: 4 µg/mL (≈ 3.77 µM)
N3-PEG200-RWWRF [1a, azidopeptide N3-PEG200-RWWRF, PEG200-linked, amidated C-terminus] | 256 | 256 | 256 | 256 | 256 | 256 | 256 | 256 | 256 | 32 | 32 | 32 | 32 | 32 | 32 | 32 | 32 | 32 | 128 | 256 | Antimicrobial Activity (MIC) P. aeruginosa [1, 14]: 256 µg/mL; Antimicrobial Activity (MIC) S. epidermidis [2, 15]: 32 µg/mL; Antimicrobial Activity (MIC) E. coli [3, 14]: 256 µg/mL; MIC E. coli ATCC 25922 [3, 7]: 256 µg/mL; MIC E. coli ATCC 25922 [3, 8]: 128 µg/mL; MIC E. coli ATCC 25922 [3, 9]: 256 µg/mL; MIC E. coli ATCC 25922 [3, 10]: 256 µg/mL; MIC E. coli ATCC 25922 [3, 11]: 128 µg/mL; MIC E. coli ATCC 25922 [3, 12]: 256 µg/mL; MIC E. coli ATCC 25922 [3, 13]: 256 µg/mL; Antimicrobial Activity (MIC) S. aureus [4, 16]: 64 µg/mL; MIC S. aureus ATCC 9144 [4, 5]: 64 µg/mL; MIC S. aureus ATCC 9144 [4, 6]: 64 µg/mL; MIC S. aureus ATCC 9144 [4, 7]: 64 µg/mL; MIC S. aureus ATCC 9144 [4, 8]: 64 µg/mL; MIC S. aureus ATCC 9144 [4, 9]: 64 µg/mL; MIC S. aureus ATCC 9144 [4, 10]: 64 µg/mL; MIC S. aureus ATCC 9144 [4, 11]: 64 µg/mL; MIC S. aureus ATCC 9144 [4, 12]: 64 µg/mL; MIC S. aureus ATCC 9144 [4, 13]: 64 µg/mL
N3-PEG400-RBBRF [2b, azidopeptide N3-PEG400-RBBRF, B = biphenylalanine, amidated C-terminus] | 128 | 256 | 256 | 128 | 256 | 256 | 128 | 256 | 256 | 16 | 16 | 16 | 16 | 16 | 16 | 16 | 16 | 16 | 128 | 128 | Antimicrobial Activity (MIC) P. aeruginosa [1, 14]: 256 µg/mL; Antimicrobial Activity (MIC) S. epidermidis [2, 15]: 16 µg/mL; Antimicrobial Activity (MIC) E. coli [3, 14]: 128 µg/mL; MIC E. coli ATCC 25922 [3, 7]: 128 µg/mL; MIC E. coli ATCC 25922 [3, 8]: 128 µg/mL; MIC E. coli ATCC 25922 [3, 9]: 128 µg/mL; MIC E. coli ATCC 25922 [3, 10]: 128 µg/mL; MIC E. coli ATCC 25922 [3, 11]: 128 µg/mL; MIC E. coli ATCC 25922 [3, 12]: 128 µg/mL; MIC E. coli ATCC 25922 [3, 13]: 128 µg/mL; Antimicrobial Activity (MIC) S. aureus [4, 16]: 32 µg/mL; MIC S. aureus ATCC 9144 [4, 5]: 16 µg/mL; MIC S. aureus ATCC 9144 [4, 6]: 32 µg/mL; MIC S. aureus ATCC 9144 [4, 7]: 16 µg/mL; MIC S. aureus ATCC 9144 [4, 8]: 16 µg/mL; MIC S. aureus ATCC 9144 [4, 9]: 32 µg/mL; MIC S. aureus ATCC 9144 [4, 10]: 32 µg/mL; MIC S. aureus ATCC 9144 [4, 11]: 16 µg/mL; MIC S. aureus ATCC 9144 [4, 12]: 32 µg/mL; MIC S. aureus ATCC 9144 [4, 13]: 32 µg/mL
